Measured values published in patent US20250152550A1, “LYMPH-TARGETING FORMULATIONS” (Monash University, priority 2021, published 2025).

Tests used:
[1] = Lymph and plasma pharmacokinetics of orlistat in acute pancreatitis rats; type: in vivo, rat; settings: AP rats relative to healthy animals
Source text: FIG. 4 illustrates lymph and plasma pharmacokinetics of orlistat in lymph diverted or lymph intact sham or acute pancreatitis (AP) rats intestinally administered a blank long chain fatty acid (LC-FA), orlistat LC-FA (LC-FA+O), or orlistat lipid free formulation (LFF+O). Dose-normalised lymph concentration of total orlistat (open and closed ring forms) over time (Panel A), cumulative lymphatic transport of total orlistat (open and closed ring forms) over time (Panel B), gut-lymph concentrations of triglyceride (TG) (Panel C), cumulative TG mass transport in gut-lymph (Panel D), dose-normalised plasma concentrations of total orlistat (open and closed ring forms) (Panel E), and lymph to plasma concentration ratios of orlistat (Panel F) over time. […]
In the previous study it was determined in healthy rats that orlistat administration in a long chain fatty acid (LC-FA) formulation promotes lymphatic drug transport when compared to administration in a lipid free formulation (LFF). […] Blood pressure and heart rate were also determined. […]
After initiation of dosing of the formulations, lymph was collected continuously for the duration of the experiment (i.e. up to 4 h post initiation of formulation dosing) into pre-weighed 1.5 ml tubes that were kept in an ice bath. Lymph collection tubes were changed every hour and lymph flow was determined gravimetrically. […]

[2] = type: in vivo; settings: intestinal and IV groups; below the limit of quantitation
Description: Systemic availability was determined in lymph-intact anaesthetised rats with cannulas inserted into the carotid artery and duodenum for blood collection and formulation infusion, respectively. To enable the calculation of absolute bioavailability an additional group was administered orlistat intravenously via a jugular vein cannula, and blood samples collected from a carotid artery cannula over time.
To enable determination of systemic availability following intestinal dosing of selected formulations (i.e. the 40 mg oleic acid and olive oil formulations containing 8 mg/kg orlistat) a separate group of lymph-intact animals (i.e. non-lymph cannulated) were cannulated at the duodenum and carotid artery to enable formulation administration and blood collection, respectively. After surgery the rats were hydrated via intraduodenal infusion of 2.8 ml/h normal saline for at least 30 min, followed by intraduodenal infusion of the formulations at 2.8 ml/h for 2 h. […]
For the plasma pharmacokinetic studies, the absolute bioavailability following intestinal delivery of orlistat was calculated from:
Where AUC0-8h intestinally administered and IV administered are the area under the plasma concentration time curves from time 0 to 8 h after intestinal and IV administration, respectively. Plasma AUCs were calculated using the linear trapezoidal method.

[3] = cited from earlier work
[4] = healthy volunteers, oral, standard capsule formulations

In the case of `CCCCCCCCCCC[C@@H](C[C@@H]1OC(=O)[C@H]1CCCCCC)OC(=O)[C@H](CC(C)C)NC=O` [orlistat], the “Gut-lymph uptake of orlistat in animals with AP” value [1] is given as “attenuated relative to healthy animals”, the “Plasma concentration of closed ring form of orlistat” value [2] is given as less than 50 ng/mL and the “Dose recovered in the faeces” value [3, 4] is given as “more than 97%”. For the same compound, the “Dose recovered in the faeces in a non-metabolised form” value [3, 4] was 83.1% and the “Absorption and bioavailability of orlistat” value ([3]; oral administration in standard formulations, fed or fasted state) was less than 1 % dose.
